Experimental data taken from US6423829B1 (St. Jude Children's Research Hosital, priority 1997, dated 2002).
Structures can show the parent of a compound that is named as a salt.

Columns and labels:
[1] = molecular target: T1, hENT2 (ei transporter) in CEM/N1-7 cells (Homo sapiens, UniProt Q14542); assay: 3H-uridine uptake in CEM/N1-7 cells in the presence of nucleoside transport inhibitors; assay type: cell-based; details: for effect on uridine transport in CEM/N1-7 cells: FIG. 1B
T1 construct: expressed in transfected cells; host or cells: CEM/C19 (nucleoside-transport-deficient, EBNA-1-expressing subline of human T-cell leukemia CEM) carrying plasmid pDR2/N1-7
T1 sequence (Q14542 1-456): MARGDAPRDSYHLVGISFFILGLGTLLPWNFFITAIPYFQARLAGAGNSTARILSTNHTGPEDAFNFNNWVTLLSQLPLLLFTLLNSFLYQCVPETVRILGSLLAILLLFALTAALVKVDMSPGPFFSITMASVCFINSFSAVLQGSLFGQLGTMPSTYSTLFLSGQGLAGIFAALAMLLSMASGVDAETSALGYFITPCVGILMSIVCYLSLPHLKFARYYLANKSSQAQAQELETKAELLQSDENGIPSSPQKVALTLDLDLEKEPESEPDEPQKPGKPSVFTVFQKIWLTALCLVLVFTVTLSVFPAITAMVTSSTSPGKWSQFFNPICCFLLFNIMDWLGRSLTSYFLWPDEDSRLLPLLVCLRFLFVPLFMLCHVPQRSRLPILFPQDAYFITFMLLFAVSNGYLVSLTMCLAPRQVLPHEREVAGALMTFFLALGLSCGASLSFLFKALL
Experimental: The values shown are means of duplicate assays and have been corrected for extracellular water space.
FIGS. 1B-1C depict the uptake of 10 μM ^3H-uridine determined at 22° C. in Na^+buffer using a 7.5 second uptake interval in the presence of nucleoside transport inhibitors. The uptake interval was initiated by simultaneous addition of the label and inhibitory nucleobase, nucleoside or nucleotide. […] This value was subtracted from the total uridine uptake values.
Removal of sodium from the buffer had no effect on transport in CEM/N1-7 indicating the presence of an equilibrative type transporter. […] (FIG. 1B). As expected from the permeant selectivity observed for ei activity in several cell lines [Plagemann et al., Biochim. Biophys. […] This was recently confirmed by Jarvis and colleagues [Osses et al., Biochem. J., 317:843-848 (1996)] by direct measurements of hypoxanthine in human vascular endothelial cells. […] All these features are consistent with those of an ei transporter, ie., an iENTP.

[2] = test system: concentrative nucleoside transporters (cif, cit, cib); details: at concentrations up to 10 μM; cited from earlier work
[3] = molecular target: T2, human ei transporter in HeLa cells (Homo sapiens, UniProt Q14542); details: read-out: IC50 for inhibition of uridine transport via ei; cited from earlier work
T2 construct: the human ei transporter in HeLa cells where the IC50 values; host or cells: HeLa cells (endogenous)
T2 sequence (Q14542 1-456): T1 sequence (Q14542 1-456)

CEM/C19 cells = assay: DUP-785 toxicity and uridine rescue in CEM/C19 cells; assay type: cell-based, human

In the case of `O=c1[nH]cnc2nc[nH]c12` [hypoxanthine], the “effect on uridine influx in CEM/N1-7 cells” value ([1]; competing nucleobase, nucleoside or nucleotide added with label, FIG. 1C) is reported as “inhibited”.

For `O=[N+]([O-])c1ccc(CSc2ncnc3c2ncn3C2OC(CO)C(O)C2O)cc1` [NBMPR, 6-[(4-nitrobenzyl)thio-9-β-D-ribofuranosylpurine]], the “effect on uridine transport in CEM/N1-7 cells” value (“effect on uridine transport” for short) ([1]; 0.1 μM inhibitor, 10 μM 3H-uridine, 22° C.) is listed as “had no effect”, the “effect on uridine transport” value ([1]; higher concentrations of inhibitor) is listed as “Partial inhibition” and the “sensitivity of the concentrative nucleoside transporters” value [2] is listed as “insensitive”. The IC50 [3] was 6 µM.

For `Cc1c(-c2ccc(-c3ccccc3F)cc2)nc2ccc(F)cc2c1C(=O)O` [DUP-785, 6-fluoro-2(2′--fluoro-1, 1′-biphenyl-4-yl)-3-methyl-4-quinoline carboxylic acid sodium salt], the “sensitivity of cells to the de novo uridylate synthesis inhibitor” value (CEM/C19 cells) was “sensitive”.

For `OCCN(CCO)c1nc(N2CCCCC2)c2nc(N(CCO)CCO)nc(N3CCCCC3)c2n1` [DIP, bis(diethanolamino)-4,8-dipiperidinopyrimido-[5,4-d]-2,6-pyrimidine], the “effect on uridine transport” value ([1]; 10 μM inhibitor) is listed as “completely blocked” and the “sensitivity of the concentrative nucleoside transporters” value [2] is listed as “insensitive”.
